Measurements from patent US4452778A, “Synergistic antibacterial compositions and method of treatment of infections caused by multiple antibiotic-resistant organisms” (Eli Lilly and Company, priority 1981, dated 1984).
In brackets after ≈: the same amount, converted by molar mass. Counter-ions that a name gives are not always drawn. Like-named read-outs stand apart in the source and are kept apart here.

Assays:
Klebsiella pneumoniae = assay: Checkerboard broth dilution synergy study (mic); assay type: cell-based; conditions: Table III; for MIC: Klebsiella pneumoniae, read-out: mic, drug alone
Pseudomonas pseudomallei = assay: microbe, parasite or virus in culture; assay type: cell-based
Pseudomonas aeruginosa = assay: Checkerboard broth dilution synergy study (mic); assay type: cell-based; conditions: Table III; for MIC: Pseudomonas aeruginosa, read-out: mic, drug alone
Serratia marcescens = assay: Checkerboard broth dilution synergy study (mic); assay type: cell-based; conditions: Table III; for MIC: Serratia marcescens, read-out: mic, drug alone
Proteus rettgeri = assay: Checkerboard broth dilution synergy study (mic); assay type: cell-based; conditions: Table III; for MIC: Providencia rettgeri, read-out: mic, drug alone
[1] = cited from earlier work; for average peak serum concentration: 1 hour
Acinetobacter sp. = assay: Checkerboard broth dilution synergy study (mic); assay type: cell-based; conditions: Table III; for MIC: Acinetobacter, read-out: mic, drug alone
E. cloacae = assay: Checkerboard broth dilution synergy study (mic); assay type: cell-based; conditions: Table III; for MIC: Enterobacter cloacae, read-out: mic, drug alone
Pseudomonas maltophilia = assay: Checkerboard broth dilution synergy study (mic); assay type: cell-based; conditions: Table III; for MIC: Stenotrophomonas maltophilia, read-out: mic, drug alone
[2] = 1 mg/kg intramuscular; cited from earlier work

Compound: NCC[C@H](O)C(=O)N[C@@H]1C[C@H](N)[C@@H](O[C@H]2O[C@H](CN)[C@@H](O)[C@H](O)[C@H]2O)[C@H](O)[C@H]1O[C@H]1O[C@H](CO)[C@@H](O)[C@H](N)[C@H]1O [amikacin]
- MIC (Klebsiella pneumoniae; isolate 130): 4 µg/mL
- MIC (Klebsiella pneumoniae; isolate 214-1): 8 µg/mL
- MIC (Klebsiella pneumoniae; isolate 463): 2 µg/mL
- MIC (Klebsiella pneumoniae; isolate 938): 4 µg/mL
- MIC (Klebsiella pneumoniae; isolate 1231): 4 µg/mL
- mic of each drug in combination I + A (Klebsiella pneumoniae; isolate 130): < 0.5 µg/mL
- mic of each drug in combination I + A (Klebsiella pneumoniae; isolate 214-1): < 0.5 µg/mL
- mic of each drug in combination I + A (Klebsiella pneumoniae; isolate 463): < 0.5 µg/mL
- mic of each drug in combination I + A (Klebsiella pneumoniae; isolate 938): < 0.5 µg/mL
- mic of each drug in combination I + A (Klebsiella pneumoniae; isolate 1231): 2 µg/mL
- MIC (Pseudomonas pseudomallei; Burkholderia pseudomallei, read-out: mic, drug alone): 32 µg/mL (≈ 54.6 µM)
- mic of each drug in combination I + A (Pseudomonas pseudomallei; Table III, isolate not named): 8 µg/mL
- MIC (Pseudomonas aeruginosa; isolate 316-2): 16 µg/mL
- MIC (Pseudomonas aeruginosa; isolate 362): 16 µg/mL
- MIC (Pseudomonas aeruginosa; isolate 363): 32 µg/mL
- MIC (Pseudomonas aeruginosa; isolate 610): 1 µg/mL
- MIC (Pseudomonas aeruginosa; isolate Brownlee): 16 µg/mL
- mic of each drug in combination I + A (Pseudomonas aeruginosa; isolate 316-2): 2 µg/mL
- mic of each drug in combination I + A (Pseudomonas aeruginosa; isolate 362): 2 µg/mL
- mic of each drug in combination I + A (Pseudomonas aeruginosa; isolate 363): 2 µg/mL
- mic of each drug in combination I + A (Pseudomonas aeruginosa; isolate 610): 1 µg/mL
- mic of each drug in combination I + A (Pseudomonas aeruginosa; isolate Brownlee): 4 µg/mL
- MIC (Serratia marcescens; isolate 463-2): 1 µg/mL
- MIC (Serratia marcescens; isolate 606): 1 µg/mL
- MIC (Serratia marcescens; isolate 1414): 8 µg/mL
- MIC (Serratia marcescens; isolate B377): 2 µg/mL
- MIC (Serratia marcescens; isolate Ziegler): 4 µg/mL
- mic of each drug in combination I + A (Serratia marcescens; isolate 463-2): < 0.5 µg/mL
- mic of each drug in combination I + A (Serratia marcescens; isolate 606): < 0.5 µg/mL
- mic of each drug in combination I + A (Serratia marcescens; isolate 1414): < 0.5 µg/mL
- mic of each drug in combination I + A (Serratia marcescens; isolate B377): < 0.5 µg/mL
- mic of each drug in combination I + A (Serratia marcescens; isolate Ziegler): 2 µg/mL
- MIC (Proteus rettgeri; isolate 53): 8 µg/mL
- MIC (Proteus rettgeri; isolate 136-1): 4 µg/mL
- MIC (Proteus rettgeri; isolate 768): 16 µg/mL
- MIC (Proteus rettgeri; isolate 997): 8 µg/mL
- MIC (Proteus rettgeri; isolate 1422): 4 µg/mL
- mic of each drug in combination I + A (Proteus rettgeri; isolate 53): < 0.5 µg/mL
- mic of each drug in combination I + A (Proteus rettgeri; isolate 136-1): 1 µg/mL
- mic of each drug in combination I + A (Proteus rettgeri; isolate 768): < 0.5 µg/mL
- mic of each drug in combination I + A (Proteus rettgeri; isolate 997): < 0.5 µg/mL
- mic of each drug in combination I + A (Proteus rettgeri; isolate 1422): 8 µg/mL
- average peak serum concentration ([1]; 250 mg (3.7 mg/kg) intramuscular): about 12 mcg/ml
- serum level ([1]; 250 mg (3.7 mg/kg) intramuscular, 10 hours): about 0.3 mcg/ml
- average peak serum concentration ([1]; 375 mg (5 mg/kg) intramuscular): ~16 µg/mL
- serum level ([1]; 375 mg (5 mg/kg) intramuscular, 10 hours): ~1200 ng/mL
- serum level ([1]; 500 mg (7.5 mg/kg) infusion over 30 minutes, 30 minutes post-infusion): 24000 ng/mL
- serum level ([1]; 500 mg (7.5 mg/kg) infusion over 30 minutes, 1 hour post-infusion): 18000 ng/mL
- serum level ([1]; 500 mg (7.5 mg/kg) infusion over 30 minutes, 10 hours post-infusion): 750 ng/mL
- mean peak serum concentration ([1]; 500 mg (7.5 mg/kg) infusion over 30 minutes, end of infusion): 38 µg/mL
- average peak serum concentration ([1]; 500 mg (7.5 mg/kg) intramuscular): ~21 µg/mL
- serum level ([1]; 500 mg (7.5 mg/kg) intramuscular, 10 hours): ~2100 ng/mL
- MIC (Acinetobacter sp.; isolate 28-1): 8 µg/mL
- MIC (Acinetobacter sp.; isolate 28-2): 4 µg/mL
- MIC (Acinetobacter sp.; isolate 106): 2 µg/mL
- MIC (Acinetobacter sp.; isolate 107): 8 µg/mL
- MIC (Acinetobacter sp.; isolate 109): 4 µg/mL
- mic of each drug in combination I + A (Acinetobacter sp.; isolate 28-1): 8 µg/mL
- mic of each drug in combination I + A (Acinetobacter sp.; isolate 28-2): < 0.5 µg/mL
- mic of each drug in combination I + A (Acinetobacter sp.; isolate 106): < 0.5 µg/mL
- mic of each drug in combination I + A (Acinetobacter sp.; isolate 107): 8 µg/mL
- mic of each drug in combination I + A (Acinetobacter sp.; isolate 109): < 0.5 µg/mL
- MIC (E. cloacae; isolate 228): 2 µg/mL
- MIC (E. cloacae; isolate 1253): 1 µg/mL
- MIC (E. cloacae; isolate 1296): 4 µg/mL
- MIC (E. cloacae; isolate 1415): 8 µg/mL
- MIC (E. cloacae; isolate McQuinn): 32 µg/mL
- mic of each drug in combination I + A (E. cloacae; isolate 228): < 0.5 µg/mL
- mic of each drug in combination I + A (E. cloacae; isolate 1253): < 0.5 µg/mL
- mic of each drug in combination I + A (E. cloacae; isolate 1296): 0.5 µg/mL
- mic of each drug in combination I + A (E. cloacae; isolate 1415): < 0.5 µg/mL
- mic of each drug in combination I + A (E. cloacae; isolate McQuinn): 2 µg/mL
- MIC (Pseudomonas maltophilia; isolate 10): > 64 µg/mL
- MIC (Pseudomonas maltophilia; isolate 505): > 64 µg/mL
- mic of each drug in combination I + A (Pseudomonas maltophilia; isolate 10): < 0.5 µg/mL
- mic of each drug in combination I + A (Pseudomonas maltophilia; isolate 505): 1 µg/mL

Compound: NC[C@H]1O[C@H](O[C@H]2[C@H](O)[C@@H](O[C@H]3O[C@H](CO)[C@@H](O)[C@H](N)[C@H]3O)[C@H](N)C[C@@H]2N)[C@H](N)C[C@@H]1O [tobramycin sulfate]
- maximum serum concentrations [2]: about 4 mcg/ml
